The values that follow come from ChEMBL document CHEMBL1155538 (Bioorg Med Chem Lett, 2010).

Data set [1] in a line: Half life in human liver microsomes. The data set is classed as ADME, Microsome. In general terms: Liver microsomes are a subcellular fraction often used to study metabolism.
Data set [2] is described as follows: Inhibition of tetrodotoxin-sensitive sodium channel.
Data set [3] concerns the target Voltage-gated inwardly rectifying potassium channel KCNH2 (Homo sapiens, UniProt Q12809). Description: Displacement of [3H]dofetilide from human ERG. (In general: Displacement assays read how much labelled ligand stays bound in the presence of the test substance.)
For data set [4], the target named is Sodium-dependent serotonin transporter (Homo sapiens, UniProt P31645). Description: biochemical.
Sequence of Sodium-dependent serotonin transporter (P31645 whole entry): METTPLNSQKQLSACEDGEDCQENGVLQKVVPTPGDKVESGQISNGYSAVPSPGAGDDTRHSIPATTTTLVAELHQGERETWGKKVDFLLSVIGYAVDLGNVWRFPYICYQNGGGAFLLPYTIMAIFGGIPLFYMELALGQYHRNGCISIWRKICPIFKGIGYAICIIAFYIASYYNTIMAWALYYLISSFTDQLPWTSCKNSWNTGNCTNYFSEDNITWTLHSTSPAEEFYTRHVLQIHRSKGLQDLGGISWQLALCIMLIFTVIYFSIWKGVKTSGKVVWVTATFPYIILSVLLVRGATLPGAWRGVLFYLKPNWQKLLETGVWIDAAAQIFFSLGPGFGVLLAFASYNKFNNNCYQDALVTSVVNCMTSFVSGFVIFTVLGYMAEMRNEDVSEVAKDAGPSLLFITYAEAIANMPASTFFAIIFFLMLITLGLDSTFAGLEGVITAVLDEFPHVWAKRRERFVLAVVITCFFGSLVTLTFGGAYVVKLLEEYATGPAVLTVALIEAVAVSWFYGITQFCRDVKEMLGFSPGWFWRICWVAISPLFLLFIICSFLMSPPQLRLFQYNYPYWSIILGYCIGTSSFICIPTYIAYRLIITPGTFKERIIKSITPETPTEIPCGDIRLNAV
For data set [5], the target named is Sodium-dependent noradrenaline transporter (Homo sapiens, UniProt P23975). Description: biochemical.
Sequence of Sodium-dependent noradrenaline transporter (P23975 whole entry): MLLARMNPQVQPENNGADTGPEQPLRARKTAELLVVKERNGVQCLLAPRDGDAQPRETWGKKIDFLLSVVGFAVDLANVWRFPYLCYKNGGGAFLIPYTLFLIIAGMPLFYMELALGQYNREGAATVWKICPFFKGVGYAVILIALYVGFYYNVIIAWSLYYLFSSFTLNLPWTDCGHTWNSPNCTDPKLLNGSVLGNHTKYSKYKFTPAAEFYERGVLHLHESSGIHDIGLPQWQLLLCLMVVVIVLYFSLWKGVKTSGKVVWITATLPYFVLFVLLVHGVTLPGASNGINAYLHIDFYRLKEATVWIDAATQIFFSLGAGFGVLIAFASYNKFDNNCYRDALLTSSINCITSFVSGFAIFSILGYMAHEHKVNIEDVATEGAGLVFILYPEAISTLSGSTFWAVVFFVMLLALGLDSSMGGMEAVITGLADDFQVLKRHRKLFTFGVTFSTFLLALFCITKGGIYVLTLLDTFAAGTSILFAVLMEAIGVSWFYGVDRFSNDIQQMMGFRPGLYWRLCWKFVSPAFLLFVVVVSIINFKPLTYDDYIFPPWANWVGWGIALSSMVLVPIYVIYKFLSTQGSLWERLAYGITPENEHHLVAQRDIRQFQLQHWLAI
The target in data set [6] is Sodium-dependent dopamine transporter (Homo sapiens, UniProt Q01959). The data set is described as follows: biochemical.
Sequence of Sodium-dependent dopamine transporter (Q01959 whole entry): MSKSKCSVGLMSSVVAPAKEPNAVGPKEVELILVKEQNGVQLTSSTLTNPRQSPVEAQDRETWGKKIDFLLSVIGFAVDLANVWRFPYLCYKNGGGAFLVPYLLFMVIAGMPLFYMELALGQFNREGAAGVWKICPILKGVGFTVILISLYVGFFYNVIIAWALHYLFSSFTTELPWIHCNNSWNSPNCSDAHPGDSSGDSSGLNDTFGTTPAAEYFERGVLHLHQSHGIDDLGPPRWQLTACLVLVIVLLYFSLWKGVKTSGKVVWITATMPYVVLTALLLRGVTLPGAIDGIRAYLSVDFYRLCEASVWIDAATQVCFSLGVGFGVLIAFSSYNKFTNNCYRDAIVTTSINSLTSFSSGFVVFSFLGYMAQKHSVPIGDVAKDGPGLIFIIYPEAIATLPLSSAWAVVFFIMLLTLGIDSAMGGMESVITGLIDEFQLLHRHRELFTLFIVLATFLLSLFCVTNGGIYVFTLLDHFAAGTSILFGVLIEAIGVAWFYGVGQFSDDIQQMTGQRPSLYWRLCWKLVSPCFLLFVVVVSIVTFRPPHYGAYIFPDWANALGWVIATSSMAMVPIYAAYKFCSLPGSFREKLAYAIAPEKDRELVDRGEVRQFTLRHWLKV

Structures are written as SMILES.

One may read the half-life as the time in which the quantity being followed falls by half. Read a low half-life as fast loss. The IC50 is the concentration that gives 50% inhibition. Lower therefore signals higher potency. The term Ki denotes the equilibrium dissociation constant of an inhibitor or competing ligand from its target. Lower therefore signals a stronger hold on the target.

Sequence of Voltage-gated inwardly rectifying potassium channel KCNH2 (Q12809 whole entry): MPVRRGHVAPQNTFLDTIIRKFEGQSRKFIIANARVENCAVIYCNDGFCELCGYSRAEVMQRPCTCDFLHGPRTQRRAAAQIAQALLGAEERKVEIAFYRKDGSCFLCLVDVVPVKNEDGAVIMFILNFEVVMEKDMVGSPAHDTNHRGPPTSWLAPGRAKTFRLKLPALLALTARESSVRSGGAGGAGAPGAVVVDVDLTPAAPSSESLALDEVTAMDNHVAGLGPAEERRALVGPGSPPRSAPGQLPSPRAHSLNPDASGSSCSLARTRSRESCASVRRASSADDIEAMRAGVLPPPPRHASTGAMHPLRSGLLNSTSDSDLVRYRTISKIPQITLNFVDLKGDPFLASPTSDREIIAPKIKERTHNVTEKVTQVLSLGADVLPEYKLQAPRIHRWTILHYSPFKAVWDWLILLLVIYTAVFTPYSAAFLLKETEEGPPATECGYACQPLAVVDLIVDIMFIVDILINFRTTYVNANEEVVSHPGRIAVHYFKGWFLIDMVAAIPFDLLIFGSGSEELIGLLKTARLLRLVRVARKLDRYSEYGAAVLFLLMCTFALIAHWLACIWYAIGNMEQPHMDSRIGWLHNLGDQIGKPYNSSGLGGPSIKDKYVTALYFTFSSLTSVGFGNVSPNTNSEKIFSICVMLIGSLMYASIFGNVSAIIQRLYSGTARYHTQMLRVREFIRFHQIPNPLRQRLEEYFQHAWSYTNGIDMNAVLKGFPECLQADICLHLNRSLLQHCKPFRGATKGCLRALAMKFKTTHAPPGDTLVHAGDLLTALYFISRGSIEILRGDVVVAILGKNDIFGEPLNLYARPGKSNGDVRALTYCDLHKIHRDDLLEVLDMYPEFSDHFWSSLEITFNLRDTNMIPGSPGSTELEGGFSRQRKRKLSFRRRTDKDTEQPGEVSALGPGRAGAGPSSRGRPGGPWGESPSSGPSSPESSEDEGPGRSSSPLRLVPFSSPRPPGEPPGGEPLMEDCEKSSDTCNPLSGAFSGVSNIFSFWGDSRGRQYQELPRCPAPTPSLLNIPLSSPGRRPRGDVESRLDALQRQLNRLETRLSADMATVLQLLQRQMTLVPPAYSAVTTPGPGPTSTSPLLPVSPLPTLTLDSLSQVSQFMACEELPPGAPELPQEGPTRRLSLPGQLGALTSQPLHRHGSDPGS

The compound `CC(C)CN(C(=O)c1cccc(Cl)c1Cl)[C@H]1CCNC1` registered a half-life in data set [1] greater than 120 min. The midpoint of inhibition in data set [2], the IC50, lay at 8.55 µM.
With `c1ccc(C(Cc2cccc3c2OCC3)N2CCNCC2)cc1` (stereo unspecified), the concentration for half-maximal inhibition (IC50) in data set [3] stood at 21.4 µM. Also, the inhibition constant (Ki) in data set [4] is 8 nM; in data set [5], 340 nM; in data set [6], greater than 3.16 µM.
